Patent publication US10925876B2, “Methods for using triazolo-pyrazinyl soluble guanylate cyclase activators in fibrotic disorders” (Merck Sharp & Dohme Corp., priority 2016, dated 2021)

Molecular target: T1, sGC α1/β1 heterodimer (Homo sapiens, UniProt Q02108+Q02153)
T1 construct: expressed in transfected cells
T1 sequence (Q02108 1-690): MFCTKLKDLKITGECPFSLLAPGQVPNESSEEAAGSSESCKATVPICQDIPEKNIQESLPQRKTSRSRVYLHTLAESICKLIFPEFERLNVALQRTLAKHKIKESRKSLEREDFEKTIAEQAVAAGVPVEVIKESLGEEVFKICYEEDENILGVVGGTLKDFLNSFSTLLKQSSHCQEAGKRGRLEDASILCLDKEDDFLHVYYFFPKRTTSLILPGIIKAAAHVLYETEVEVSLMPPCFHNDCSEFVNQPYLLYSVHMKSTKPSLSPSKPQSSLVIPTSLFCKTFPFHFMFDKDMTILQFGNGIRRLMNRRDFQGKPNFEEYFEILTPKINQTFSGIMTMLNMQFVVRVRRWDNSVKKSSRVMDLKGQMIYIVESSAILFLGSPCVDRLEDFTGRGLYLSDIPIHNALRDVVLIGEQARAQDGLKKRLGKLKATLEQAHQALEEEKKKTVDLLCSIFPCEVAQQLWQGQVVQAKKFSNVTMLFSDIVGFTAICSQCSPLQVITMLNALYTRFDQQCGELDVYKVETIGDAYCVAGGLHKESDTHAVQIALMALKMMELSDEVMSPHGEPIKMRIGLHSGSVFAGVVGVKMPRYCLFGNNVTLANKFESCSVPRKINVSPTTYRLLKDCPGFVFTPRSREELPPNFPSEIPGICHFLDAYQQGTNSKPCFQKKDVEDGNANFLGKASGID
T1 sequence (Q02153 1-619): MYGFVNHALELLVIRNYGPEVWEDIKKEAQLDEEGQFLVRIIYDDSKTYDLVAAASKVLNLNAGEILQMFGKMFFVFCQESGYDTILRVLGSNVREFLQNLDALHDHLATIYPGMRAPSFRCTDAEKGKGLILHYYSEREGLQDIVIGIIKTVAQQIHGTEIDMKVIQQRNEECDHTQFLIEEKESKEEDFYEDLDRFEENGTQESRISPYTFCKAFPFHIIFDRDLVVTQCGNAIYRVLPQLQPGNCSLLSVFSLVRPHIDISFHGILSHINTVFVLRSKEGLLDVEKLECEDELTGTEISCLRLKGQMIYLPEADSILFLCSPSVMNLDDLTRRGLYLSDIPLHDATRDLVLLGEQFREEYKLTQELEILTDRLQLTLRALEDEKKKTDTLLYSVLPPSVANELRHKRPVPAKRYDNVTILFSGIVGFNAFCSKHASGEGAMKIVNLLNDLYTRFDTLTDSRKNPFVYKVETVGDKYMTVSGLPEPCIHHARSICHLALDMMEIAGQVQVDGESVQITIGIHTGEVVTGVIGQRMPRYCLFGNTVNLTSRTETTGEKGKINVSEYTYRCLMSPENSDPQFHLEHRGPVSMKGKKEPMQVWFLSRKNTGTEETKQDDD
Assay: Cell-Based sGC Functional Assay (CASA Assay), cGMP generation in CHO-K1/sGC cells
Details: maximum cGMP production of Compound A set to 100% activation, read-out: % Act. (percent activation relative to Compound A)
Text: sGC is a heme-containing enzyme that converts GTP to secondary messenger cGMP. Increases in cGMP levels affect several physiological processes including vasorelaxation through multiple downstream pathways. […] Heme-dependent activators (HDAs) preferentially activate sGC containing a ferrous heme group. To determine the effect of sGC activators on enzyme activity, the CASA assay was developed to monitor the generation of cGMP in a cell line that stably expresses the heterodimeric sGC protein.
A CHO-K1 cell line stably expressing the sGC α1/β1 heterodimer was generated using a standard transfection protocol. CHO-K1 cells were transfected with plasmids pIREShyghsGCα1 and pIRESneo-hsGCβ1 simultaneously using FUGENE reagent. Clones that stably express both subunits were selected with hygromycin and neomycin for ˜2 weeks. Clone #7 was chosen for the assay and was designated CHO-K1/sGC. CHO-K1/sGC cells were maintained in F-K12 medium containing 10% heat-inactivated Fetal Bovine Serum (FBS), 100 μg/mL penicillin/streptomycin, 0.5 mg/mL hygromycin and 0.25 mg/mL G418. The cells were then cryopreserved in LN2. On the day of the assay, cells thawed and resuspended in EBSS Assay Buffer (Sigma, E3024) supplemented with 5 mM MgCl2, 10 mM HEPES (4-(2-hydroxyethyl)piperazine-1-ethanesulfonic acid) and 0.05% BSA (bovine serum albumin) (EAB) and cell density was then adjusted to 4×10^5/mL with EAB. IBMX (3-isobutyl-1-methylxanthin, 0.5 mM) was added to inhibit degradation of cGMP. Compounds were diluted from DMSO stock solutions and added to the assay at a final DMSO concentration of 2.5%. Cells were incubated with compounds in the presence and absence of 1 μM of Diethylenetriamine/nitric oxide adduct (DETA-NO; Sigma, 17018) for 1 hr at 37° C. At the end of the incubation period, the reaction was terminated and the cells were lysed with the detection reagents from Cisbio Kits. The level of intracellular cGMP was determined using an HTRF-based assay kit (CisBio, 62GM2PEC), which detects the displacement of a fluorescence labeled cGMP from its specific antibody. The cGMP produced by test compounds was directly compared to the maximum cGMP production (this value was set to equal 100% activation.) of the published sGC-HDA Compound A:
[drawing 298] (Example 1 in WO 2010/065275, published Jun. 10, 2010). The test compounds' activities were then expressed as a percentage of Compound A, the standard in every experiment. This percent activation was calculated either in the presence or absence of DETA-NO which was then plotted. IP and maximum fold induction was derived using ADA analysis software for 4P fit.

| SMILES | Emax [%] |
| --- | --- |
| Cc1nc(C2(C)C(=O)Nc3nc(-c4cn5ncnc5c(CCCC(F)(F)F)n4)nc(N)c32)ccc1C(F)(F)F (racemic) [Example 49B, 4-amino-5-methyl-5-(6-methyl-5-(trifluoromethyl)pyridin-2-yl)-2-(8-(4,4,4-trifluorobutyl)-[1,2,4]triazolo[1,5-a]pyrazin-6-yl)-5H-pyrrolo[2,3-d]pyrimidin-6(7H)-one] | 127 |
| Cc1ccc(C2(C)C(=O)Nc3nc(-c4cn5ncnc5c(CCC(F)(F)C(F)(F)F)n4)nc(N)c32)nc1 (centres unmarked) [Example 19B, 4-amino-5-methyl-5-(5-methylpyridin-2-yl)-2-(8-(3,3,4,4,4-pentafluorobutyl)-[1,2,4]triazolo[1,5-a]pyrazin-6-yl)-5H-pyrrolo[2,3-d]pyrimidin-6(7H)-one] | 71 |
| Nc1nc(-c2cn3ncnc3c(CCC(F)(F)F)n2)nc2c1C(c1ccc(C(F)(F)F)cn1)(C1CC1)C(=O)N2 (centres unmarked) [Example 80A, 4-amino-5-cyclopropyl-5-(5-(trifluoromethyl)pyridin-2-yl)-2-(8-(3,3,3-trifluoropropyl)-[1,2,4]triazolo[1,5-a]pyrazin-6-yl)-5H-pyrrolo[2,3-d]pyrimidin-6(7H)-one] | 115 |
| Nc1nc(-c2cn3ncnc3c(CCCC(F)(F)F)n2)nc2c1C(c1ccc(F)c(F)c1)(C1CC1)C(=O)N2 (centres unmarked) [Example 32A, 4-amino-5-cyclopropyl-5-(3,4-difluorophenyl)-2-(8-(4,4,4-trifluorobutyl)-[1,2,4]triazolo[1,5-a]pyrazin-6-yl)-5H-pyrrolo[2,3-d]pyrimidin-6(7H)-one] | 144 |
| Nc1nc(-c2cn3ncnc3c(CCCC(F)(F)F)n2)nc2c1C(c1nnc(C3(F)CC3)o1)(C1CC1)C(=O)N2 (centres unmarked) [Example 108A, 4-amino-5-cyclopropyl-5-(5-(1-fluorocyclopropyl)-1,3,4-oxadiazol-2-yl)-2-(8-(4,4,4-trifluorobutyl)-[1,2,4]triazolo[1,5-a]pyrazin-6-yl)-5H-pyrrolo[2,3-d]pyrimidin-6(7H)-one] | 107 |
| CCCc1nc(-c2nc(N)c3c(n2)NC(=O)C3(c2ccc(Cl)cn2)C2CC2)cn2ncnc12 (centres unmarked) [Example 57A, 4-amino-5-(5-chloropyridin-2-yl)-5-cyclopropyl-2-(8-propyl-[1,2,4]triazolo[1,5-a]pyrazin-6-yl)-5H-pyrrolo[2,3-d]pyrimidin-6(7H)-one] | 119 |
| Nc1nc(-c2cn3ncnc3c(CCC(F)(F)F)n2)nc2c1C(c1ccc(Cl)cn1)(C1CC1)C(=O)N2 (centres unmarked) [Example 82A, 4-amino-5-(5-chloropyridin-2-yl)-5-cyclopropyl-2-(8-(3,3,3-trifluoropropyl)-[1,2,4]triazolo[1,5-a]pyrazin-6-yl)-5H-pyrrolo[2,3-d]pyrimidin-6(7H)-one] | 125 |
| N#Cc1ccc(C2(C3CC3)C(=O)Nc3nc(-c4cn5ncnc5c(CCCC(F)(F)F)n4)nc(N)c32)nc1 (centres unmarked) [Example 117A, 6-(4-Amino-5-cyclopropyl-6-oxo-2-(8-(4,4,4-trifluorobutyl)-[1,2,4]triazolo[1,5-a]pyrazin-6-yl)-6,7-dihydro-5H-pyrrolo[2,3-d]pyrimidin-5-yl)nicotinonitrile] | 140 |
| Cc1cnc(C2(C3CC3)C(=O)Nc3nc(-c4cn5ncnc5c(CCC(F)(F)C(F)(F)F)n4)nc(N)c32)cn1 (racemic) [Example 21B, 4-amino-5-cyclopropyl-5-(5-methylpyrazin-2-yl)-2-(8-(3,3,4,4,4-pentafluorobutyl)-[1,2,4]triazolo[1,5-a]pyrazin-6-yl)-5H-pyrrolo[2,3-d]pyrimidin-6(7H)-one] | 99 |
| Nc1nc(-c2cn3ncnc3c(CCC(F)(F)F)n2)nc2c1C(c1ccc(F)c(F)c1)(C1CC1)C(=O)N2 (centres unmarked) [Example 83A, 4-amino-5-cyclopropyl-5-(3,4-difluorophenyl)-2-(8-(3,3,3-trifluoropropyl)-[1,2,4]triazolo[1,5-a]pyrazin-6-yl)-5H-pyrrolo[2,3-d]pyrimidin-6(7H)-one] | 100 |
| CC1(c2ccc(C#N)cn2)C(=O)Nc2nc(-c3cn4ncnc4c(CCCC(F)(F)F)n3)nc(N)c21 (centres unmarked) [Example 48A, 6-(4-amino-5-methyl-6-oxo-2-(8-(4,4,4-trifluorobutyl)-[1,2,4]triazolo[1,5-a]pyrazin-6-yl)-6,7-dihydro-5H-pyrrolo[2,3-d]pyrimidin-5-yl)nicotinonitrile] | 85 |

Other lines, results leading:

| Emax [%] | SMILES |
| --- | --- |
| 104 | CC1(c2ccc(Cl)c(F)c2)C(=O)Nc2nc(-c3cn4ncnc4c(CCC(F)(F)F)n3)nc(O)c21 (centres unmarked) [Example 153B, 5-(4-chloro-3-fluorophenyl)-4-hydroxy-5-methyl-2-(8-(3,3,3-trifluoropropyl)-[1,2,4]triazolo[1,5-a]pyrazin-6-yl)-5H-pyrrolo[2,3-d]pyrimidin-6(7H)-one] |
| 87 | O=C1Nc2nc(-c3cn4ncnc4c(CCCC(F)(F)F)n3)nc(O)c2C1(c1ccc(C(F)(F)F)cc1)C1CC1 (centres unmarked) [Example 144A, 5-cyclopropyl-4-hydroxy-2-(8-(4,4,4-trifluorobutyl)-[1,2,4]triazolo[1,5-a]pyrazin-6-yl)-5-(4-(trifluoromethyl)phenyl)-5H-pyrrolo[2,3-d]pyrimidin-6(7H)-one] |
| 55 | CC1(c2ccc(C(F)F)cn2)C(=O)Nc2nc(-c3cn4ncnc4c(CCCC(F)(F)F)n3)nc(O)c21 (centres unmarked) [Example 181B, 4-hydroxy-5-(5-(difluoromethyl)pyridin-2-yl)-5-methyl-2-(8-(4,4,4-trifluorobutyl)-[1,2,4]triazolo[1,5-a]pyrazin-6-yl)-5H-pyrrolo[2,3-d]pyrimidin-6(7H)-one] |
| 74 | O=C1Nc2nc(-c3cn4ncnc4c(CCCC(F)(F)F)n3)nc(O)c2C1(c1ccc(F)cn1)C1CC1 (centres unmarked) [Example 150A, 5-cyclopropyl-5-(5-fluoropyridin-2-yl)-4-hydroxy-2-(8-(4,4,4-trifluorobutyl)-[1,2,4]triazolo[1,5-a]pyrazin-6-yl)-5,7-dihydro-6H-pyrrolo[2,3-d]pyrimidin-6-one] |
| 125 | CC1(c2ccccc2F)C(=O)Nc2nc(-c3cn4ncnc4c(CCC(F)(F)C(F)(F)F)n3)nc(O)c21 (centres unmarked) [Example 170A, 5-(2-Fluorophenyl)-4-hydroxy-5-methyl-2-(8-(3,3,4,4,4-pentafluorobutyl)-[1,2,4]triazolo[1,5-a]pyrazin-6-yl)-5,7-dihydro-6H-pyrrolo[2,3-d]pyrimidin-6-one] |
| 70 | CCCc1nc(-c2nc(O)c3c(n2)NC(=O)C3(c2ccc(F)c(F)c2)C2CC2)cn2ncnc12 (centres unmarked) [Example 167A, 5-cyclopropyl-5-(3,4-difluorophenyl)-4-hydroxy-2-(8-propyl-[1,2,4]triazolo[1,5-a]pyrazin-6-yl)-5H-pyrrolo[2,3-d]pyrimidin-6(7H)-one] |
